Four compounds from ChEMBL document CHEMBL1201862, “PubChem BioAssay data set” (2004) can be followed below.

Active and inactive are the calls of the source. Where only a bound is given, the exact number is not on record here.

Test [1] has as its system Streptococcus sp. 'group A'. Put plainly: Streptococcus pyogenes SK(-)GAS viability under kanamycin – luminescence, BacTiterGlo, confirmation, counter-screen for streptokinase expression inhibitor project, dose response (AID 1900). The class given is functional, organism-based.
Test [2] relates to Streptococcus. Put plainly: GAS UMAA2166 growth inhibition – luminescence, BacTiterGlo, counter-screen for streptokinase expression inhibitor project, dose response (AID 1915).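 Further: potency for reduction of bacterial viability or growth.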 The test is classed as functional, organism-based.
Test [3] deals with Activated CDC42 kinase 1 (Homo sapiens, UniProt Q07912). Put plainly: Navigating the Kinome. Panel member name: ACK1. The test is classed as functional.
Chain of Activated CDC42 kinase 1 (Q07912 whole entry): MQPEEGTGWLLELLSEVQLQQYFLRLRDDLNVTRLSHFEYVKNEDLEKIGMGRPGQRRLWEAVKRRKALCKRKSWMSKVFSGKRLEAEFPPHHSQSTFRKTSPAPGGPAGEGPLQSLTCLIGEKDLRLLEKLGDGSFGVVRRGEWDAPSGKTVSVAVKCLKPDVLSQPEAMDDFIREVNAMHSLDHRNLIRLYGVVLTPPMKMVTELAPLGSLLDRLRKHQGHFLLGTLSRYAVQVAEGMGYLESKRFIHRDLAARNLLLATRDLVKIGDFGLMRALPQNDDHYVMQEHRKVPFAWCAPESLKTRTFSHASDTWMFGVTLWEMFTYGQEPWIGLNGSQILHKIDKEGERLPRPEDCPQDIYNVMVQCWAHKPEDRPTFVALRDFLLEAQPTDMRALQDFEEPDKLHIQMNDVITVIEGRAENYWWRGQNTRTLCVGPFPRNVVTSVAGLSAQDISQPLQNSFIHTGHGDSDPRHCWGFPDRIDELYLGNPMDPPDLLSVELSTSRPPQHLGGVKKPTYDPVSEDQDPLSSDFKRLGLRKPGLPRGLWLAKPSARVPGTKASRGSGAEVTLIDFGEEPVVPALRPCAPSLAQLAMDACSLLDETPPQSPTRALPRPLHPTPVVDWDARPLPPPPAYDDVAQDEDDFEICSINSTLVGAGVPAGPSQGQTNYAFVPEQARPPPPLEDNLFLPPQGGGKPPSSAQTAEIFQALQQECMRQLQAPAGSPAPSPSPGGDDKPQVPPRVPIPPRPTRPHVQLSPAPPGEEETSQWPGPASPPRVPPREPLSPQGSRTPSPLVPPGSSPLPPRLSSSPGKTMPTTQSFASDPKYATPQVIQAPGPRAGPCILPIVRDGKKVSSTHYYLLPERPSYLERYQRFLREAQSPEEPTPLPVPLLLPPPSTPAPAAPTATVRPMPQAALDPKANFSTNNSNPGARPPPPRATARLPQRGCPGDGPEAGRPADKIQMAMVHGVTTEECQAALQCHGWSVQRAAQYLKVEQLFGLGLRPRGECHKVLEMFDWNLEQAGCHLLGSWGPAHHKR
Test [4] concerns the target Glycogen synthase kinase-3 alpha (Homo sapiens, UniProt P49840). The class given is functional.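 Further: GSK3A result taken from a broad kinome-wide kinase panel.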
The target in test [5] is Protein kinase C theta type (Homo sapiens, UniProt Q04759). Put plainly: Navigating the Kinome. Panel member name: PRKCQ. The test is classed as functional.
Chain of Protein kinase C theta type (Q04759 whole entry): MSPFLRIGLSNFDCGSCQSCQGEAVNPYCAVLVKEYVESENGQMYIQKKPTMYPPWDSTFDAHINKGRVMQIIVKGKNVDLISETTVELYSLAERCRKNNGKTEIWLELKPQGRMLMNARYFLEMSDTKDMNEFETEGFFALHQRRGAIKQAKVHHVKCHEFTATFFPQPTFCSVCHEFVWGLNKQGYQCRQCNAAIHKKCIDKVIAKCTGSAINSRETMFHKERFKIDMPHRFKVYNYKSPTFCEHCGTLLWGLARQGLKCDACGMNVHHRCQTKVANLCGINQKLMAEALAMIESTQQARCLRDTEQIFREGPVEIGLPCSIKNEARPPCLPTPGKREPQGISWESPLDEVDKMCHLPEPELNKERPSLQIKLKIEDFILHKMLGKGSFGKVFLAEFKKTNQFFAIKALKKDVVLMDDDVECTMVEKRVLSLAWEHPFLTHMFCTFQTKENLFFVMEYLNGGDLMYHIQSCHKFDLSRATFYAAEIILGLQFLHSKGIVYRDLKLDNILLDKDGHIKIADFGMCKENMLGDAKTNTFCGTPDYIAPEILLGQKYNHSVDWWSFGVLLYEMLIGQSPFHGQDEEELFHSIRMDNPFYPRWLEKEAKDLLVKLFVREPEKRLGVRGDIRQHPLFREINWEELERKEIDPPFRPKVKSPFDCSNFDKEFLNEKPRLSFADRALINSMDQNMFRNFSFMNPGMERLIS
Test [6] addresses Death-associated protein kinase 3 (Homo sapiens, UniProt O43293). The test is classed as functional.
The target in test [7] is Tyrosine-protein kinase BTK (Homo sapiens, UniProt Q06187). The test is classed as functional.
For test [8], the target named is Rho-associated protein kinase 1 (Homo sapiens, UniProt Q13464). The test is classed as functional.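 Further: measured within a broad kinome-wide panel profiling many kinases.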
Test [9] concerns the target Macrophage colony-stimulating factor 1 receptor (Homo sapiens, UniProt P07333). The class given is functional.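 Further: value comes from the Navigating the Kinome screening panel, CSF1R member.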
Test [10] deals with T1, Tyrosine-protein kinase JAK3 (Homo sapiens, UniProt P52333).
T1 sequence (P52333 whole entry): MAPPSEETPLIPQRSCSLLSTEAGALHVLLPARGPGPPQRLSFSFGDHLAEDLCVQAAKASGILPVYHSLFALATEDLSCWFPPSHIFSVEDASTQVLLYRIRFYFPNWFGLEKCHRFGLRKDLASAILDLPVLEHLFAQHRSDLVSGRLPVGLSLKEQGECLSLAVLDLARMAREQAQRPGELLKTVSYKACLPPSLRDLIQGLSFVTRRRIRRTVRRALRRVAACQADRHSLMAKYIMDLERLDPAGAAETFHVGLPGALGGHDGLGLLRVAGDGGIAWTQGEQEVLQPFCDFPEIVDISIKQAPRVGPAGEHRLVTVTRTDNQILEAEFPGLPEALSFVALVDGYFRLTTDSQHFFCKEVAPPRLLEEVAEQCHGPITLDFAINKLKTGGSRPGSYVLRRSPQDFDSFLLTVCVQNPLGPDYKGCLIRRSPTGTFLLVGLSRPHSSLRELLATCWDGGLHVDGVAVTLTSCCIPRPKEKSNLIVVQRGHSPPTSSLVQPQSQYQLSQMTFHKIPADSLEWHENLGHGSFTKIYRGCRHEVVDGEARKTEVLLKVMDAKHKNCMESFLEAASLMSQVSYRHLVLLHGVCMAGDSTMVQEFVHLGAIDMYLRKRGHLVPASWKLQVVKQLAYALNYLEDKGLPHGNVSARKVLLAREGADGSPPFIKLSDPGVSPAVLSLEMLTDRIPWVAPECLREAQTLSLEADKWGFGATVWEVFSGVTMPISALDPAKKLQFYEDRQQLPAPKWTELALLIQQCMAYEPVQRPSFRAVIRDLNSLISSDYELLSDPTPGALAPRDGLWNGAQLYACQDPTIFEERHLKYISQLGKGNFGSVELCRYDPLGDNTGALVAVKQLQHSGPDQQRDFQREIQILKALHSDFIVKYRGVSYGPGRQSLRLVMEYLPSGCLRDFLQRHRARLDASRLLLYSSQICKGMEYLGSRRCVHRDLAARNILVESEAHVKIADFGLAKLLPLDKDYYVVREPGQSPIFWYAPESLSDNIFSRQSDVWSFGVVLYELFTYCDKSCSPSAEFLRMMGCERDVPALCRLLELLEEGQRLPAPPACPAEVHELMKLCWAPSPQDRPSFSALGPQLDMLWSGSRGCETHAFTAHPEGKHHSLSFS
The test is classed as functional.

Test [11] addresses Leucine-rich repeat serine/threonine-protein kinase 2 (Homo sapiens, UniProt Q5S007). The test is classed as functional.
In test [12] the target is Glycogen synthase kinase-3 beta (Homo sapiens, UniProt P49841). The class given is functional.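 Further: value comes from a broad kinome profiling panel, with GSK3B as the panel member.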
Chain of Glycogen synthase kinase-3 beta (P49841 whole entry): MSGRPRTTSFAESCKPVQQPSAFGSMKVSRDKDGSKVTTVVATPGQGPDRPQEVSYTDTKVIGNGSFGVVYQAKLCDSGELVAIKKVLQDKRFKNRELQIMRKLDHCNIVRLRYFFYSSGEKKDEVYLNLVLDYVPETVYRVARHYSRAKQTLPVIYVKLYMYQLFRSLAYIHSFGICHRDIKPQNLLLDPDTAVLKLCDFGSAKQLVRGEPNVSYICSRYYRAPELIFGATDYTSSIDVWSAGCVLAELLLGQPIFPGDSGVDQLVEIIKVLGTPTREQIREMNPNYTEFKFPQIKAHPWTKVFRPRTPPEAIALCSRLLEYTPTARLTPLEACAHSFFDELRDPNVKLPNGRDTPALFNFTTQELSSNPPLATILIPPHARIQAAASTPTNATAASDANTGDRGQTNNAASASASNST
The target of test [13] is Tyrosine-protein kinase Lck (Homo sapiens, UniProt P06239). The test is classed as functional.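 Further: lck was assayed as one member of a kinase panel.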
Chain of Tyrosine-protein kinase Lck (P06239 whole entry): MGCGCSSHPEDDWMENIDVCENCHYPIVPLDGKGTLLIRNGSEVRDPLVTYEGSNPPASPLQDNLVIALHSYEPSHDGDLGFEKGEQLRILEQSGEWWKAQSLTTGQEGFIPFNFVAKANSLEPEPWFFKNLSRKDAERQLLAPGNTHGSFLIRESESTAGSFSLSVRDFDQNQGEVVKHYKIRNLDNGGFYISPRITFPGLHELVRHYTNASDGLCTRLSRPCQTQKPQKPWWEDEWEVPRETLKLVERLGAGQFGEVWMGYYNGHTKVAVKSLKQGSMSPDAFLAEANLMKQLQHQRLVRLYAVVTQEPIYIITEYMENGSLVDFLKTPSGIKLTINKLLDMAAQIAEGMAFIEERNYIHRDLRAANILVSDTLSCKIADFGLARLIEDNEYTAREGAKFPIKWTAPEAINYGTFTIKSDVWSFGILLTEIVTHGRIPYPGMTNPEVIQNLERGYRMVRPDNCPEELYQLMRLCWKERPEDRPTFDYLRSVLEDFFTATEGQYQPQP
Test [14] has as its target T2, Inhibitor of nuclear factor kappa-B kinase subunit epsilon (Homo sapiens, UniProt Q14164).
T2 sequence (Q14164 whole entry): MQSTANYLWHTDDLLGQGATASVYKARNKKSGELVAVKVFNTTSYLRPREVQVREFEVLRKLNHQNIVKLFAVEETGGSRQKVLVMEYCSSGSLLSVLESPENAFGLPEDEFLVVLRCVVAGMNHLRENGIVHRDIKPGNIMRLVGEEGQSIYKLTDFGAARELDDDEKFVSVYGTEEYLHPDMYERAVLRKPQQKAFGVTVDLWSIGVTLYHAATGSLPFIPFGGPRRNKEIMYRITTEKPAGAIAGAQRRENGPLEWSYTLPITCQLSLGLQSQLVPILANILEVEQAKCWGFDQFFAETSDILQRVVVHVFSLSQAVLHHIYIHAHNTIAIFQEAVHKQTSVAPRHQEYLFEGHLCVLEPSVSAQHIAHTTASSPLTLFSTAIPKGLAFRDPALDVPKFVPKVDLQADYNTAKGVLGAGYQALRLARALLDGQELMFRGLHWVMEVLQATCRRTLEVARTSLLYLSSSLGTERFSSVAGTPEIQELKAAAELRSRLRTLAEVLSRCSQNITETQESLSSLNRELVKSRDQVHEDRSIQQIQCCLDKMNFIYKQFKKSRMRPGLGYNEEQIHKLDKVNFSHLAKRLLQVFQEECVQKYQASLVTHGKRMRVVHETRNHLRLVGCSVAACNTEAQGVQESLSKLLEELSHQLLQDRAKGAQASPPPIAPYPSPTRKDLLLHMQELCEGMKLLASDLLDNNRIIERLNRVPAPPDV
Put plainly: Navigating the Kinome. Panel member name: IKBKE. The class given is functional.

The target in test [15] is Dual specificity mitogen-activated protein kinase kinase 1 (Homo sapiens, UniProt Q02750). Put plainly: Navigating the Kinome. Panel member name: MAP2K1. The test is classed as functional.
Chain of Dual specificity mitogen-activated protein kinase kinase 1 (Q02750 whole entry): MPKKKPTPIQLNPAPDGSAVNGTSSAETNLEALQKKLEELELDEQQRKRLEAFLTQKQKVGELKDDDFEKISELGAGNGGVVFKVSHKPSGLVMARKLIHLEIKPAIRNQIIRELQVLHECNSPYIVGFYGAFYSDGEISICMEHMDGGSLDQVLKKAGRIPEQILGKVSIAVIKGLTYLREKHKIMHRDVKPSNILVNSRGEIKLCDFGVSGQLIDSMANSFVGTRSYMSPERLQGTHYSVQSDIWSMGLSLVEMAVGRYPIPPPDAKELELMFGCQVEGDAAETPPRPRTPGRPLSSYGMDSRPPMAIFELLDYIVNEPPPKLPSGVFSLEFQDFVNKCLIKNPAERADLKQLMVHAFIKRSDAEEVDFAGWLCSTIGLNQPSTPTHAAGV
Test [16] addresses Leukocyte tyrosine kinase receptor (Homo sapiens, UniProt P29376). Put plainly: Navigating the Kinome. Panel member name: LTK. The test is classed as functional.

Chain of Macrophage colony-stimulating factor 1 receptor (P07333 whole entry): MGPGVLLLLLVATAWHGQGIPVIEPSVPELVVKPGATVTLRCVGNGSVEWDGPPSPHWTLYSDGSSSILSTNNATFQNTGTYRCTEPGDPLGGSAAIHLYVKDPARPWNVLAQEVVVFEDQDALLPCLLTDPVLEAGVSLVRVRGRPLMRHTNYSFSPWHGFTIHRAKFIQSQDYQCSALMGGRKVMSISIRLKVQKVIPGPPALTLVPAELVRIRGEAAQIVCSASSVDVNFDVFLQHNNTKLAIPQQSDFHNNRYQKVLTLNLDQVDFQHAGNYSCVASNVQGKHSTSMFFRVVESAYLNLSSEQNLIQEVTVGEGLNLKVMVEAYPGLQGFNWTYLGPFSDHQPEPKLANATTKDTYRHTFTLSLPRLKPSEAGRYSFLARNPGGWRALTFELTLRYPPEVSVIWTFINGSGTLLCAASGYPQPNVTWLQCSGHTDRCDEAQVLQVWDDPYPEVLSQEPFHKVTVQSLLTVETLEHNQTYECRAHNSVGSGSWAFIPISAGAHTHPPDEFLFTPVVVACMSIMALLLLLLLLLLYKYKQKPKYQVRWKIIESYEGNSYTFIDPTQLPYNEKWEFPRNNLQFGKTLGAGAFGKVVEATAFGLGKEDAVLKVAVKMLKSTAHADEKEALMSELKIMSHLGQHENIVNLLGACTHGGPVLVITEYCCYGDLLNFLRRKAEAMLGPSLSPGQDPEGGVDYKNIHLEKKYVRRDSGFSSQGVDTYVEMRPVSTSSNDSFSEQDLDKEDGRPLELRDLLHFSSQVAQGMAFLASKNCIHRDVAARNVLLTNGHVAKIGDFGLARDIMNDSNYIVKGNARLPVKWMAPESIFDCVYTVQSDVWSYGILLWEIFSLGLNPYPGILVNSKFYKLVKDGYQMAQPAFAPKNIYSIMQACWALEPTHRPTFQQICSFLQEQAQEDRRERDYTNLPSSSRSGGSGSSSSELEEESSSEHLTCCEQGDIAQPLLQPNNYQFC
Chain of Leukocyte tyrosine kinase receptor (P29376 whole entry): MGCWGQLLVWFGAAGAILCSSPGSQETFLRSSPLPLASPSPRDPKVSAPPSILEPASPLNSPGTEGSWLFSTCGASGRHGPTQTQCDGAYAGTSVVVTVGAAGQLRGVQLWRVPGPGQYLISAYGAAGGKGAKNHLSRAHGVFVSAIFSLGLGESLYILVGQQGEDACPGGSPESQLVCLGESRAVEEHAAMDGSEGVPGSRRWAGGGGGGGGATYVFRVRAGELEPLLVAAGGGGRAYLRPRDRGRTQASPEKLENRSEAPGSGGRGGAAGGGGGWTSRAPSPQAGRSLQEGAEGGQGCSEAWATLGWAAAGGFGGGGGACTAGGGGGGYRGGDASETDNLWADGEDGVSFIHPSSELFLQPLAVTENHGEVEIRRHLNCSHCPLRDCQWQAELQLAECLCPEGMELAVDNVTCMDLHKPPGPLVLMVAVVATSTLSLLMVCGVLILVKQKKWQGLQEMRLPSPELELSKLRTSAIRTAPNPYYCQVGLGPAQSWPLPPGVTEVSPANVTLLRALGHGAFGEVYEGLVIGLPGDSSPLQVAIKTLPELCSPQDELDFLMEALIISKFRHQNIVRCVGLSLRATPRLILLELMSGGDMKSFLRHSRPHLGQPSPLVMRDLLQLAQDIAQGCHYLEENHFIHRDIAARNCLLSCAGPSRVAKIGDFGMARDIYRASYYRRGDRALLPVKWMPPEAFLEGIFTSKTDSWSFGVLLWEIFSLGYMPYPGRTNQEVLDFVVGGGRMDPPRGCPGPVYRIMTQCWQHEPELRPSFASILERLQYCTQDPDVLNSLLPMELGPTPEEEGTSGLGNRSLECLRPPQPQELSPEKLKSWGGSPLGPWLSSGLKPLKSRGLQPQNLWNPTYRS

The EC50 is the concentration that produces a half-maximal response. Turning to `CCOC(=O)c1ccc(NC2=CC(=O)C(=O)c3ccccc32)cc1`, the results for the EC50 in test [1] and in test [2] were 2300 nM (active) and 9240 nM (active), respectively.
For `CCCCCCCCCCCCCCCC[N+](C)(C)C` the same measures were 2060 nM (active) and 7770 nM (active).
A word on the Ki: it is a measure of affinity in units of concentration, obtained from inhibition or displacement. By pKi is commonly meant the negative decadic logarithm of the Ki, by convention in mol/L. `NC1CCC(Nc2nc(Cl)cc(-c3c[nH]c4ncccc34)n2)CC1` (stereo not given): the Ki in [3] is 2000 nM (active); in test [4], 398 nM (active); in test [5], 0.794 nM (active); in test [6], 50.1 nM (active); in test [7], > 6310 nM (inactive); in [8] it was 1.26 nM (active). In addition, the Ki in test [9] is 126 nM (active); in test [10], 158 nM (active); in test [11] it was 2 nM (active); in [12] it was 398 nM (active); in [13], 3160 nM (active); in test [14], 2510 nM (active). Further, the values for the inhibition constant (Ki) in test [15] and in test [16] were 20 nM (active) and 126 nM (active), respectively. For the same compound, the pKi in test [3] was 5.7; in test [4], 6.4; in [5], 9.1; in [6], 7.3; in [8] it was 8.9; in test [9], 6.9. The pKi is 6.8 in [10]; 8.7 in test [11]; 6.4 in test [12]; 5.5 in test [13]; 5.6 in [14]; 7.7 in test [15]. Besides, the pKi in test [16] turned out to be 6.9.
As for `O=C(O)C1CN(Cc2ccc(OCc3ccccc3)cc2Cl)C1`, the Ki in test [3] is > 3980 nM (inactive); in test [4], > 3980 nM (inactive); in test [5] it was > 2510 nM (inactive); in test [6] it was > 5010 nM (inactive); in [7], > 6310 nM (inactive); in test [8], > 3980 nM (inactive). Besides, the Ki in test [9] is > 2510 nM (inactive); in [10], > 5010 nM (inactive); in test [11], > 2510 nM (inactive); in test [12] it was > 3980 nM (inactive); in test [13], > 6310 nM (inactive); in test [14], > 3160 nM (inactive). The Ki was > 3160 nM (inactive) in test [15] and > 2510 nM (inactive) in test [16].
